Data published in patent US20240058344A1, “METHODS OF TREATING NEURODEGENERATIVE DISORDERS AND STAT3-LINKED CANCERS USING SUPPRESSORS OF ELECTRON LEAK” (Cornell University, priority 2020, published 2024).

Columns and labels:
[1] = tested on: hTauP301S mice; assay: Survival of hTauP301S mice on S3QEL2-formulated chow; format: in vivo; settings: long-term chow administration from 4-5 months of age
Excerpt: Nontransgenic (NTG) and transgenic hTauP301S male mice received oral dosing with S3QEL2-formulated chow or control chow (Control) for indicated durations starting at 4-5 months of age. n=14-15 mice per genotype and treatment, pairwise Mantel-Cox test.
Survival rates in wild-type and transgenic hTauP301S mice during chronic treatment with control or S3QEL2-containing chow was also monitored.

[2] = tested on: primary neurons with primary mouse microglia; assay: Tau-associated neuronal damage in primary neurons cultured with microglia; format: cell-based; settings: 10 μM; AAV human P301S tau
Experimental: Primary neurons were immunostained for MAP2 or NeuN following mock treatment or transduction with AAV encoding human P301S mutant tau under the synapsin-1 promoter. Neurons were cultured without (FIGS. 9A-9B) or with (FIGS. 9C-9D) primary mouse microglia. S3QEL2 (S3, 10 μM). n=4 per condition.
(§1) To begin dissecting the mechanisms by which S3QEL2 affects neural cell function and disease-linked processes, studies in primary cultures were conducted. Isolated mouse-derived neurons were transduced with adeno-associated viral vectors (AAVs) encoding wild-type or the P301S mutant form of the human tau protein (FIG. 8A). […] However, S3QEL reduced neuronal damage in the presence of astrocytes (approx. 30% astrocytes, FIG. 10A). Tau can also promote aberrant neuronal activity and hypersynchrony. S3QEL reduced aberrant neuronal firing in tau-transduced neurons co-cultured with astrocytes (FIGS. 10B-10C).

[3] = tested on: astrocytic-neuronal co-cultures; assay: Neuronal damage (NeuN) and neuronal firing (MEA) in astrocytic-neuronal co-cultures with AAV-TauP301S; format: cell-based, mouse; settings: 1 μM
Experimental: (FIG. 10A) Co-cultures were immunostained for NeuN following transduction with AAV encoding human P301S mutant tau. Vehicle (Veh) or S3QEL2 (S3, 1μM) was added on day 8 in vitro and cells were analyzed on day 14. (FIG. 10B) Example traces recorded using multi-electrode array (MEA). Spikes (black) and network bursts (pink boxes). Top traces show population activities. (FIG. 10C) Average neuronal firing (% of baseline) in co-cultures. Mock treatment (control) or AAV-TauP301S with or without S3QEL2 (S3, 1μM) were added on day 6. n=4 wells per condition, *p<0.05, ANOVA with Bonferroni's test.
as §1

[4] = tested on: primary astrocytes; assay: Markers of reactivity in primary astrocytes treated with oligomeric Aβ (qRT-PCR); format: cell-based, mice; settings: oligomeric Aβ 3 μM, S3QEL2 20 μM, 24 h
Experimental: (§2) (FIGS. 11A-11B) Astrocytes isolated from P2-P3 mice were treated with oligomeric Aβ (3 μM) and S3QEL2 (S3, 20 μM) or vehicle (V) for 24 h and analyzed by qRT-PCR (FIG. 11A) or Western blotting (B) and normalized to vehicle controls. (FIG. 11B) Phospho-STAT3 levels were normalized to total STAT3 per sample. n=3 wells per condition; *p<0.05, **p<0.01, ***p<0.001, ANOVA with Dunnett's test.
To further assess if S3QELs alter glial functions, the effects of S3QEL2 on isolated astrocytes and microglia was tested. […] These markers included genes associated with neurodegeneration and aging, such as complement component C3, which promotes synapse elimination in disease, and phosphorylated STAT3, which is considered a central regulator of astrocytic reactivity.

[5] = tested on: STAT3; assay: Phospho-STAT3 and total STAT3 in primary astrocytes (Western blotting); format: cell-based, mice; settings: for Phosphorylated STAT3 levels / Total STAT3 levels: S3QEL2 60 μM
Experimental: as §2
(FIGS. 12A-12B) Astrocytes isolated from P2-P3 mice were treated with oligomeric Aβ (3 μM) (A) or A1 cocktail consisting of 30 ng/mL TNF-α, 3 ng/mL IL-1α, and 400 ng/mL Clq (B), and S3QEL2 (S3, 60 μM) or vehicle (Con) for indicated durations and analyzed by Western blotting. Phospho-STAT3 levels were normalized to total STAT3 per sample, and total STAT3 levels were normalized to γ-tubulin levels per sample. n≥3 wells per condition; *p<0.05, **p<0.01, ***p<0.001, one-way ANOVA with Tukey's multiple comparisons test.
(FIG. 17A) Astrocytes isolated from P2-P3 mice were treated with A1 cocktail consisting of 30 ng/ml TNF-α, 3 ng/ml IL-1α, and 400 ng/ml Clq, and S3QEL1.2 (3 μM) or vehicle for approximately 6 h and analyzed by Western blotting. Phospho-STAT3 levels were normalized to total STAT3 per sample. n=6 wells per condition. **p<0.01, ***p<0.001, one-way ANOVA with Dunnett's multiple comparisons test. (FIG. 17B) Astrocytes isolated from P2-P3 mice were treated with A1 cocktail consisting of 30 ng/ml TNF-α, 3 ng/ml IL-1α, and 400 ng/ml Clq for 24 h, and analyzed for levels of released H2O2 using Amplex UltraRed, a fluorogenic substrate that is a highly sensitive indicator of H2O2, in the presence of horseradish peroxidase and superoxide dismutase. n=6 wells per condition. *p=0.01, Student's t test. (FIG. 17C) Astrocytes isolated from P2-P3 mice were treated with vehicle or 3 ng/ml IL-1α and either S3QEL2 (20 μM), S3QEL1.2 (1 μM), or vehicle for approximately 24 h, and analyzed for levels of released H2O2 using Amplex UltraRed. n=6 wells per condition. *p<0.05, **p<0.01, ***p<0.001, two-way ANOVA with Bonferroni's multiple comparisons test.
Similar to oligomeric Aβ, A1 cocktail (which is a mixture of TNF-α, IL-1α, and Clq) induced astrocytic reactivity that is associated with synaptic damage and neurodegeneration.
Given that this compound has a different chemical structure, these findings indicate that S3QELs suppress astrocytic reactivity and neuroinflammatory responses through modulation of complex III ROS rather than modulation of other off-target or nonspecific mechanisms.

[6] = A1 cocktail (TNF-α, IL-1α, Clq)

CCCN(CCC)c1ncnc2c1cnn2-c1ccc(C)c(C)c1 [S3QEL2]
Early mortality associated with tauopathy [1]: significantly reduced early mortality
Tau-associated neuronal damage, neurons cultured with microglia [2]: did not affect tau-associated neuronal damage
Aberrant increases in neuronal firing (MEA) in astrocytic-neuronal co-cultures ([3]; added day 6): prevented
Neuronal damage (NeuN) in astrocytic-neuronal co-cultures ([3]; added day 8, analyzed day 14): prevented neuronal damage
Markers of reactivity (genes incl. complement component C3) [4]: reduced markers of reactivity
Phosphorylated STAT3 levels [5, 6]: reduced
Total STAT3 levels [5, 6]: reduced
Phospho-STAT3 levels normalized to total STAT3 ([5]; oligomeric Aβ 3 μM, S3QEL2 20 μM, 24 h): reduced
Phosphorylated STAT3 levels ([5]; oligomeric Aβ 3 μM): reduced
Total STAT3 levels ([5]; oligomeric Aβ 3 μM): reduced
